Results as given in US8778939B2, “Compounds” (Glaxo Group Limited, priority 2009, dated 2014).

What follows are compounds tested against T1, 6His-Tev-LRRK2 (1326-2527) (Homo sapiens, UniProt Q5S007) (assay: LRRK2 AlphaScreen desensitised protein substrate assay). Conditions: excess of ATP present (2 mM ATP); read-out: pIC50 in the LRRK2 alphascreen desensitised protein substrate assay (converted).
T1 construct: A LRRK2 cDNA encoding residues 1326-2527 was received from Dundee University; made in house; host or cells: Spodoptera frugiperda (Sf9) insect cells, baculovirus
T1 sequence (Q5S007 1326-2527): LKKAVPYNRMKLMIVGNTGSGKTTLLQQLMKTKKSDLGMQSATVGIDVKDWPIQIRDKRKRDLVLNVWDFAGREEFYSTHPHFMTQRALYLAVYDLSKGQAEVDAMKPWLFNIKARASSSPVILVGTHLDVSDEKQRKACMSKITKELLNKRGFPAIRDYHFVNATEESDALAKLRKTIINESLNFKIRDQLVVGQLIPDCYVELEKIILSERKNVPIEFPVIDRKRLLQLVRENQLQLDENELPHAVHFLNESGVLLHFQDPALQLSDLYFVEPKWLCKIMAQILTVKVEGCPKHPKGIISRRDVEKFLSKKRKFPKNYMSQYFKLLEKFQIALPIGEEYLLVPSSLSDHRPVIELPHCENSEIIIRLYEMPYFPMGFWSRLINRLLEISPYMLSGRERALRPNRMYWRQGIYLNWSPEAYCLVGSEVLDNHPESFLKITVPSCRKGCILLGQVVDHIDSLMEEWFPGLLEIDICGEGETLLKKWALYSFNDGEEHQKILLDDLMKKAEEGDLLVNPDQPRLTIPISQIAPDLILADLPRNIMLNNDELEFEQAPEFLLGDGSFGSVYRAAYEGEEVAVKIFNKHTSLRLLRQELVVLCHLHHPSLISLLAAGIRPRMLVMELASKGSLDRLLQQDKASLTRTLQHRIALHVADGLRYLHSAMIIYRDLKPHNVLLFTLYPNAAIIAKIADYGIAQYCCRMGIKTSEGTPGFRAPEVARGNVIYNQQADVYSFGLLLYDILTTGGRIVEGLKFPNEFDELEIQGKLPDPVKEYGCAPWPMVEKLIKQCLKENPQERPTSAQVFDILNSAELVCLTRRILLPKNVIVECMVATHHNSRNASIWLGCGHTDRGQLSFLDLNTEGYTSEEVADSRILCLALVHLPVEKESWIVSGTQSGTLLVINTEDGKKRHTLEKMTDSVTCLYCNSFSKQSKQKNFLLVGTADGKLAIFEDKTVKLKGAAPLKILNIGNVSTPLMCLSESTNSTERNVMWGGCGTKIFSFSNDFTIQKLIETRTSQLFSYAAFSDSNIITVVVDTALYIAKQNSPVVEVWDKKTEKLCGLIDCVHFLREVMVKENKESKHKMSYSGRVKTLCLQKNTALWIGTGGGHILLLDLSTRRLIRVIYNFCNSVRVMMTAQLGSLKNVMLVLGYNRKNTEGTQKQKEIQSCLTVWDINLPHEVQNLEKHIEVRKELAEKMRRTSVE
Format: biochemical
Procedure: (§1) a) 100 nl of a 1:4 serial dilution of test compound with a top final assay concentration of 30 μM is added to certain wells in a low volume 384 well black plate. 100 nl of DMSO is used in certain wells as controls.
b) 3 μl enzyme solution (80 nM purified recombinant 6His-Tev-LRRK2 (1326-2527) in assay buffer: 50 mM Hepes (pH 7.2), 10 mM MgCl2, 150 mM NaCl, 5% glycerol, 0.0025% triton X-100 and 1 mM DTT) is added to certain wells.
Plates are then incubated for a further 1-2 hours at room temperature (incubation time varies depending upon rate and linearity of reaction with differing enzyme batches).
d) 6 μl detection solution (1:250 dilution of AlphaLisa Protein A Acceptor beads (PerkinElmer), 1:64 dilution of AlphaLisa Gluthathione Donor beads (PerkinElmer) and 1:600 dilution (dilution determined on a batch to batch basis) of Phospho-Ezrin (Thr567)/Radixin (Thr564)/Moesin (Thr558) Polyclonal Antibody (New England Biolabs) in a buffer: 50 mM Hepes (pH 7.5), 250 mM NaCl, 60 mM EDTA, 1% PEG and 0.01% Brij 35) is added to each well. Plates are then incubated for a further 2 hours at room temperature in the dark before reading on an EnVision™ plate reader with AlphaScreen HTS turbo option module and AlphaScreen settings. Data is analysed using ActivityBase software (IDBS).
LRRK2 AlphaScreen Desensitised Protein Substrate Assay
This is conducted as described for the LRRK2 alphascreen protein substrate assay, with the following differences: • 1. The concentration of ATP in the substrate solution was 2 mM. • 2. The plates were incubated for 20 minutes at room temperature following addition of the substrate solution. Pharmacological Data
With `Cn1cc(NC(=O)c2cc(Br)ccc2OCc2ccccc2)cn1` [Example 50, 5-Bromo-N-(1-methyl-1H-pyrazol-4-yl)-2-[(phenylmethyl)oxy]benzamide] the IC50 was ≤ 20 µM. `CC(O)c1ccc(OCc2ccccc2)c(C(=O)Nc2cccnc2)c1` (stereo not shown) [Example 75, 5-(1-Hydroxyethyl)-2-[(phenylmethyl)oxy]-N-3-pyridinylbenzamide] was tested, and the IC50 was ≤ 20 µM. In the case of `NCc1ccc(OCc2ccc(F)c(F)c2)c(C(=O)Nc2cccnc2)c1` [Example 120A, 5-(Aminomethyl)-2-{[(3,4-difluorophenyl)methyl]oxy}-N-3-pyridinylbenzamide], the IC50 is reported as > 25.1 µM. In the case of `Cc1nocc1NC(=O)c1cc(C(F)(F)F)ccc1OCc1ccc(F)cc1` [Example 133, 2-{[(4-fluorophenyl)methyl]oxy}-N-(3-methyl-4-isoxazolyl)-5-(trifluoromethyl)benzamide], the IC50 is reported as > 25.1 µM. `COc1ccccc1COc1ccc(-c2cnn(C)c2)cc1C(=O)Nc1cccnc1` [Example 114, 2-({[2-(Methyloxy)phenyl]methyl}oxy)-5-(1-methyl-1H-pyrazol-4-yl)-N-3-pyridinylbenzamide] was tested, and the IC50 was ≤ 20 µM. In the case of `Cc1ccncc1NC(=O)c1cc(-c2ccncc2)ccc1OCc1ccccc1` [Example 52, N-(4-Methyl-3-pyridinyl)-2-[(phenylmethyl)oxy]-5-(4-pyridinyl)benzamide], the IC50 is reported as > 25.1 µM. In the case of `COc1ncccc1NC(=O)c1cc(-c2ccncc2)ccc1OCc1ccccc1` [Example 53, N-[2-(Methyloxy)-3-pyridinyl]-2-[(phenylmethyl)oxy]-5-(4-pyridinyl)benzamide], the IC50 is reported as > 25.1 µM. For `O=C(Nc1cn[nH]c1)c1cc(-c2ccncc2)ccc1OCc1ccccc1` [Example 64, 2-[(Phenylmethyl)oxy]-N-1H-pyrazol-4-yl-5-(4-pyridinyl)benzamide], the IC50 was ≤ 20 µM. For `O=C(Nc1ccnnc1)c1cc(CN2CCOCC2)ccc1OCc1ccc(F)c(F)c1` [Example 111, 2-{[(3,4-Difluorophenyl)methyl]oxy}-5-(4-morpholinylmethyl)-N-4-pyridazinylbenzamide], the IC50 was ≤ 20 µM. `O=C(Nc1ccnnc1)c1cc(C(F)(F)F)ccc1OCc1ccc(F)cc1` [Example 132, 2-{[(4-Fluorophenyl)methyl]oxy}-N-4-pyridazinyl-5-(trifluoromethyl)benzamide] was tested, and the IC50 was ≤ 20 µM. For `Cc1nocc1NC(=O)c1cc(C(=O)N2CCOCC2)ccc1OCc1ccc(F)cc1F` [Example 126, 2-{[(2,4-Difluorophenyl)methyl]oxy}-N-(3-methyl-4-isoxazolyl)-5-(4-morpholinylcarbonyl)benzamide], the IC50 was ≤ 20 µM. With `CN1CCN(S(=O)(=O)c2ccc(OCc3ccccc3)c(C(=O)Nc3cccnc3)c2)CC1` [Example 43, 5-[(4-Methyl-1-piperazinyl)sulfonyl]-2-[(phenylmethyl)oxy]-N-3-pyridinylbenzamide] the IC50 was > 25.1 µM. `O=C(Nc1cnccc1CO)c1cc(-c2ccncc2)ccc1OCc1ccccc1` [Example 56, N-[4-(Hydroxymethyl)-3-pyridinyl]-2-[(phenylmethyl)oxy]-5-(4-pyridinyl)benzamide] was tested, and the IC50 was > 25.1 µM. With `O=C(Nc1cccnc1)c1cc(S(=O)(=O)N2CCCCC2)ccc1OCc1ccccc1` [Example 42, 2-[(Phenylmethyl)oxy]-5-(1-piperidinylsulfonyl)-N-3-pyridinylbenzamide] the IC50 was > 25.1 µM. With `O=C(Nc1cccnc1CO)c1cc(-c2ccncc2)ccc1OCc1ccccc1` [Example 55, N-[2-(Hydroxymethyl)-3-pyridinyl]-2-[(phenylmethyl)oxy]-5-(4-pyridinyl)benzamide] the IC50 was > 25.1 µM. For `CN1CCN(C(=O)c2ccc(OCc3ccccc3)c(C(=O)Nc3cccnc3)c2)CC1` [Example 35, 5-[(4-Methyl-1-piperazinyl)carbonyl]-2-[(phenylmethyl)oxy]-N-3-pyridinylbenzamide], the IC50 was ≤ 20 µM. With `Cc1oncc1NC(=O)c1cc(-c2ccncc2)ccc1OCc1ccccc1` [Example 62, N-(5-Methyl-4-isoxazolyl)-2-[(phenylmethyl)oxy]-5-(4-pyridinyl)benzamide] the IC50 was > 25.1 µM. For `Cc1nocc1NC(=O)c1cc(C(=O)N2CCOCC2)ccc1OCc1ccc(F)cc1` [Example 124, 2-{[(4-Fluorophenyl)methyl]oxy}-N-(3-methyl-4-isoxazolyl)-5-(4-morpholinylcarbonyl)benzamide], the IC50 was > 25.1 µM. With `Cn1cc(NC(=O)c2cc(-c3ccncc3)ccc2OCc2ccccc2)cn1` [Example 65, N-(1-Methyl-1H-pyrazol-4-yl)-2-[(phenylmethyl)oxy]-5-(4-pyridinyl)benzamide] the IC50 was ≤ 20 µM. For `COC(=O)NCc1ccc(OCc2ccc(F)c(F)c2)c(C(=O)Nc2cccnc2)c1` [Example 120B, Methyl ({4-{[(3,4-difluorophenyl)methyl]oxy}-3-[(3-pyridinylamino)carbonyl]phenyl}methyl)carbamate], the IC50 was > 25.1 µM. In the case of `O=C(Nc1cccnc1)c1cc(C(=O)N2CCCCC2)ccc1OCc1ccccc1` [Example 36, 2-[(Phenylmethyl)oxy]-5-(1-piperidinylcarbonyl)-N-3-pyridinylbenzamide], the IC50 is reported as ≤ 20 µM. In the case of `O=C(Nc1cccnc1)c1cc(S(=O)(=O)N2CCOCC2)ccc1OCc1ccccc1` [Example 41, 5-(4-Morpholinylsulfonyl)-2-[(phenylmethyl)oxy]-N-3-pyridinylbenzamide], the IC50 is reported as > 25.1 µM. With `O=C(Nc1cccnc1F)c1cc(-c2ccncc2)ccc1OCc1ccccc1` [Example 54, N-(2-Fluoro-3-pyridinyl)-2-[(phenylmethyl)oxy]-5-(4-pyridinyl)benzamide] the IC50 was ≤ 20 µM.

Each compound was assayed against T1, 6His-Tev-LRRK2 (1326-2527) (assay: LRRK2 peptide substrate assay). Conditions: Biotin-LRRKtide peptide substrate, ATP at Km; read-out: pIC50 in the LRRK2 peptide substrate assay (converted).
Format: biochemical
Procedure: Compounds of formula (I) may be tested for in vitro kinase activity in accordance with the following assays, using the non natural, in vitro, substrates moesin and the Longer Biotin-LRRKtide. Moesin and a shorter version of the peptide were identified as substrates in Jaleel et al, (2007, Biochem J, 405: 307-317).
LRRK2 Peptide Substrate Assay
as §1
b) 3 μl enzyme solution (80 nM purified recombinant 6His-Tev-LRRK2 (1326-2527) in assay buffer: 50 mM Hepes (pH 7.2), 10 mM MgCl2, 150 mM NaCl, 5% glycerol, 0.0025% triton X-100 and 1 mM DTT) is added to certain wells. […] Plates are then incubated for a further 1-2 hours at room temperature (incubation time varies depending upon rate and linearity of reaction with differing enzyme batches). d) 6 μl detection solution (50 nM Streptavidin SureLight® APC (PerkinElmer), 4 nM Eu-W1024 labelled anti-rabbit IgG antibody (PerkinElmer), 1:500 dilution (dilution determined on a batch to batch basis) of Phospho-Ezrin (Thr567)/Radixin (Thr564)/Moesin (Thr558) Polyclonal Antibody (New England Biolabs) and 60 mM EDTA in buffer: 40 mM Hepes (pH 7.2), 150 mM NaCl, 0.03% BSA) is added to each well. Plates are then incubated for a further 2 hours at room temperature before reading on a suitable plate reader (Excitation 330 nm, emission 620 nm (Eu) and 665 nm (APC)). Data is analysed using ActivityBase software (IDBS). LRRK2 AlphaScreen Protein Substrate Assay
For `CC(O)c1ccc(OCc2ccccc2)c(C(=O)Nc2cccnc2)c1` (stereo not shown) [Example 75, 5-(1-Hydroxyethyl)-2-[(phenylmethyl)oxy]-N-3-pyridinylbenzamide], the IC50 was ≤ 0.01 µM. For `Cc1oncc1NC(=O)c1cc(-c2cnn(C)c2)ccc1OCc1ccc(F)cc1` [Example 135, 2-{[(4-Fluorophenyl)methyl]oxy}-N-(5-methyl-4-isoxazolyl)-5-(1-methyl-1H-pyrazol-4-yl)benzamide], the IC50 was ≤ 0.1 µM.
